In BindingDB's records for doi:10.1016/j.bmcl.2005.06.044 (The University of Tokyo, 2005) one finds IC50 data, which are given here for nine compounds.

Broadly, the IC50 is the concentration that inhibits the measured activity by half. Higher therefore signals weaker potency.

This test in a line: Androgen antagonistic activity as inhibitory concentration against testosterone-induced SC-3 cell proliferation.
The compound `CCC(CC)(c1ccc(O)c(C)c1)c1ccc(NCC(=O)C(C)(C)C)c(C)c1` registered a half-inhibitory concentration (IC50) of 3.5 µM.

In turn, `CCC(CC)(c1ccc(NCC(=O)C(C)(C)C)c(C)c1)c1ccc(NCC(=O)C(C)(C)C)c(C)c1` came in with an IC50 of 1 µM.

Regarding `CCC(CC)(c1ccc(NCC(O)C(C)(C)C)c(C)c1)c1ccc(NCC(O)C(C)(C)C)c(C)c1` (centres undefined), the IC50 stood at 1 µM.

Regarding `CCC(CC)(c1ccc(NCC(=O)C(C)(C)C)c(C)c1)c1ccc(OCC(=O)C(C)(C)C)c(C)c1`, the IC50 was determined as 1.2 µM.

In turn, `CCC(CC)(c1ccc(NCCC(C)(C)O)c(C)c1)c1ccc(OCC(=O)C(C)(C)C)c(C)c1` [1-(4-{1-Ethyl-1-[4-(3-hydroxy-3-methyl-butylamino)-3-methyl-phenyl]-propyl}-2-methyl-phenoxy)-3,3-dimethyl-butan-2-one] yielded an IC50 of 0.82 µM.

The compound `CCC(CC)(c1ccc(NCC(O)CO)c(C)c1)c1ccc(OCC(O)C(C)(C)C)c(C)c1` (centres undefined) [3-(4-{1-Ethyl-1-[4-(2-hydroxy-3,3-dimethyl-butoxy)-3-methyl-phenyl]-propyl}-2-methyl-phenylamino)-propane-1,2-diol] showed an IC50 of 0.009 µM.

The compound `CCC(CC)(c1ccc(NCCC(C)(C)O)c(C)c1)c1ccc(NCCC(C)(C)O)c(C)c1` [4-(4-{1-Ethyl-1-[4-(3-hydroxy-3-methyl-butylamino)-3-methyl-phenyl]-propyl}-2-methyl-phenylamino)-2-methyl-butan-2-ol] returned an IC50 of 6.8 µM.

In the case of `CCC(CC)(c1ccc(OC[C@H](O)CO)c(C)c1)c1ccc(OC[C@H](O)C(C)(C)C)c(C)c1` [(R)-3-(4-(3-(4-((R)-2-hydroxy-3,3-dimethylbutoxy)-3-methylphenyl)pentan-3-yl)-2-methylphenoxy)propane-1,2-diol], the 50% inhibitory concentration (IC50) is 0.019 µM.

As to `CCC(CC)(c1ccc(OCC(=O)C(C)(C)C)c(C)c1)c1ccc(OCC(=O)C(C)(C)C)c(C)c1` [LG190155], the IC50 was 1.9 µM.
